Measurements published in patent publication US12522601B2, “1,3,4-oxadiazole derivative compounds as histone deacetylase 6 inhibitor, and the pharmaceutical composition comprising the same” (CHONG KUN DANG PHARMACEUTICAL CORP., priority 2020, dated 2026).

Columns and labels:
[1] = target: T1, human recombinant HDAC1 (Homo sapiens, UniProt Q13547); experiment: In vitro HDAC enzyme activity inhibition assay, HDAC1 (HDAC Fluorimetric Drug Discovery Kit); assay type: biochemical; conditions: human recombinant HDAC1, Fluor de Lys-SIRT1 substrate 10 μM, 30° C. for 60 minutes
T1 construct: purchased Enzo Life Sciences, Inc. BML-SE456
T1 sequence (Q13547 whole entry): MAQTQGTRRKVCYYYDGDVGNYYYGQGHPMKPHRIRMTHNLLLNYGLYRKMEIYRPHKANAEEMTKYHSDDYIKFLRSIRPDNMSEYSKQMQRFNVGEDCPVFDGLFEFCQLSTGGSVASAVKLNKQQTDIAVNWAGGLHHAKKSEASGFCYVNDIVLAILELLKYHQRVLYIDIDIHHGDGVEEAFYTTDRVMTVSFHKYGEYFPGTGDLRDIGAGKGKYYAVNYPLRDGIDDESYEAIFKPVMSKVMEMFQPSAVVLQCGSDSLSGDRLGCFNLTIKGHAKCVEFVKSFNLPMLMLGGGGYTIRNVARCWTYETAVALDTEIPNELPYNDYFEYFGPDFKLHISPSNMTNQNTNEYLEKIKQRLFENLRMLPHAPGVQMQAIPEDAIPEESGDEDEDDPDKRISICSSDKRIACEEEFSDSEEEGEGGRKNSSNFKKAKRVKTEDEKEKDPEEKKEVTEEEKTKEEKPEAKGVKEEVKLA
Outline: (§1)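 Fluorimetric deacetylase kit; 0.3 μg human recombinant enzyme with 10 μM Fluor de Lys-SIRT1 substrate, 60 min at 30° C, then developer 30 min. Fluorescence read at Ex 360/Em 460; IC50 from 5-fold compound dilutions. HDAC1 and HDAC6 run by the same protocol.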

[2] = target: T2, human recombinant HDAC6 (Homo sapiens, UniProt Q9UBN7); experiment: In vitro HDAC enzyme activity inhibition assay, HDAC6 (HDAC Fluorimetric Drug Discovery Kit); assay type: biochemical; conditions: for HDAC6 Selectivity (fold): HDAC6 versus HDAC1; for IC50: human recombinant HDAC6, same protocol as the HDAC1 test
T2 construct: purchased Calbiochem Inc. 382180
T2 sequence (Q9UBN7 1-1215): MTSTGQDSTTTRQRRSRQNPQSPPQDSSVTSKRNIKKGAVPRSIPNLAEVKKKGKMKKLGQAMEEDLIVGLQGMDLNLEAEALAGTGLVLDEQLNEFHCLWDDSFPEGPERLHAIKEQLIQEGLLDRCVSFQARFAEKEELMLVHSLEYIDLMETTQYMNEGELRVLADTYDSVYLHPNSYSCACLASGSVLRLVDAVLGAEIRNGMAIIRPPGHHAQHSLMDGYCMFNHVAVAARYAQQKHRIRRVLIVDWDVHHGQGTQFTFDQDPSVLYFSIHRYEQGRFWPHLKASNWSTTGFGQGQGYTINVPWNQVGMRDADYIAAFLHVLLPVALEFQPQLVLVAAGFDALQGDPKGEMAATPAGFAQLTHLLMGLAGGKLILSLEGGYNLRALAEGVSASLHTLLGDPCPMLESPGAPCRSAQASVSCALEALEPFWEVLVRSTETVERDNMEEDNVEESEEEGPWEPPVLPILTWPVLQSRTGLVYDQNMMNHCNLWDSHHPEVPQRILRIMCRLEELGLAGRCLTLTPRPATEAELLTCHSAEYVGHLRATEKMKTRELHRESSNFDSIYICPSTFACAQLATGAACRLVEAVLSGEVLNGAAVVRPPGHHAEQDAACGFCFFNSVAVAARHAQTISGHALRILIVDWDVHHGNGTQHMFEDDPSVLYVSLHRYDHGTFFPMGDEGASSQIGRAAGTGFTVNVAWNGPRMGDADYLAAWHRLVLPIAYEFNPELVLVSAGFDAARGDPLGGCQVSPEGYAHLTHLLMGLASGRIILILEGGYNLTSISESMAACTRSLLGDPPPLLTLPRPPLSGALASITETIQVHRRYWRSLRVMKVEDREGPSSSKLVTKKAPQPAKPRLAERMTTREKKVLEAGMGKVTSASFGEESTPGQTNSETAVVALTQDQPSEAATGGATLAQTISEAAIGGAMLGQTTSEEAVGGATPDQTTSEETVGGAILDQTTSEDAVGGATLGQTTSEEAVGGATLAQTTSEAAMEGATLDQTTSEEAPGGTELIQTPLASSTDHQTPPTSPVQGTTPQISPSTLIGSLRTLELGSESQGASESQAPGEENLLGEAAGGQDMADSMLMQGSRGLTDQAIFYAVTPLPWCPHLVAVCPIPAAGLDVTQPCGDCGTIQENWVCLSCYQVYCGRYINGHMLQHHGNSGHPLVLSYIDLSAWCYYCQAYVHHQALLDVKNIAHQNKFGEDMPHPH
Outline: as §1

IC50 [1]	HDAC6 Selectivity (fold) [2]	IC50 [2]	SMILES
> 50000 nM	142 fold	353 nM	CC(=O)N1CCC(C(=O)N(Cc2cn3ccc(-c4nnc(C(F)F)o4)cc3n2)c2ccccc2)CC1 [Compound 4122, 1-acetyl-N-((7-(5-(difluoromethyl)-1,3,4-oxadiazol-2-yl)imidazo[1,2-a]pyridin-2-yl)methyl)-N-phenylpiperidine-4-carboxamide]
> 50000 nM	133 fold	375 nM	CN(C)C(=O)N1CCC(C(=O)N(Cc2cn3ccc(-c4nnc(C(F)F)o4)cc3n2)c2ccccc2)CC1 [Compound 4130, N4-((7-(5-(difluoromethyl)-1,3,4-oxadiazol-2-yl)imidazo[1,2-a]pyridin-2-yl)methyl)-N1,N1-dimethyl-N4-phenylpiperidine-1,4-dicarboxamide]
> 50000 nM	124 fold	402 nM	O=C(C1CCN(C2CCCCC2)CC1)N(Cc1cn2ccc(-c3nnc(C(F)F)o3)cc2n1)c1ccccc1 [Compound 4119, 1-cyclohexyl-N-((7-(5-(difluoromethyl)-1,3,4-oxadiazol-2-yl)imidazo[1,2-a]pyridin-2-yl)methyl)-N-phenylpiperidine-4-carboxamide]
> 50000 nM	283 fold	177 nM	CN1CCC(C(=O)N(Cc2cn3ccc(-c4nnc(C(F)F)o4)cc3n2)c2cccc(F)c2)CC1 [Compound 4137, N-((7-(5-(difluoromethyl)-1,3,4-oxadiazol-2-yl)imidazo[1,2-a]pyridin-2-yl)methyl)-N-(3-fluorophenyl)-1-methylpiperidine-4-carboxamide]
> 50000 nM	233 fold	214 nM	CC(C)N1CCN(C(=O)N(Cc2cn3ccc(-c4nnc(C(F)F)o4)cc3n2)c2cccc(F)c2)CC1 [Compound 4085, N-((7-(5-(difluoromethyl)-1,3,4-oxadiazol-2-yl)imidazo[1,2-a]pyridin-2-yl)methyl)-N-(3-fluorophenyl)-4-isopropylpiperazine-1-carboxamide]
> 50000 nM	113 fold	443 nM	O=C(N1CCN(C2CCCCC2)CC1)N(Cc1cn2ccc(-c3nnc(C(F)F)o3)cc2n1)c1cccc(F)c1 [Compound 4089, 4-cyclohexyl-N-((7-(5-(difluoromethyl)-1,3,4-oxadiazol-2-yl)imidazo[1,2-a]pyridin-2-yl)methyl)-N-(3-fluorophenyl)piperazine-1-carboxamide]
> 50000 nM	261 fold	192 nM	O=C(C1CN(C2CCOCC2)C1)N(Cc1cn2ccc(-c3nnc(C(F)F)o3)cc2n1)c1cccc(F)c1 [Compound 4195, N-((7-(5-(difluoromethyl)-1,3,4-oxadiazol-2-yl)imidazo[1,2-a]pyridin-2-yl)methyl)-N-(3-fluorophenyl)-1-(tetrahydro-2H-pyran-4-yl) azetidine-3-carboxamide]
> 50000 nM	200 fold	250 nM	O=C(CO)N1CC(C(=O)N(Cc2cn3ccc(-c4nnc(C(F)F)o4)cc3n2)c2cccc(F)c2)C1 [Compound 4199, N-((7-(5-(difluoromethyl)-1,3,4-oxadiazol-2-yl)imidazo[1,2-a]pyridin-2-yl)methyl)-N-(3-fluorophenyl)-1-(2-hydroxyacetyl) azetidine-3-carboxamide]
> 50000 nM	199 fold	251 nM	O=C(C1CN(c2ccccn2)C1)N(Cc1cn2ccc(-c3nnc(C(F)F)o3)cc2n1)c1ccccc1 [Compound 4176, N-((7-(5-(difluoromethyl)-1,3,4-oxadiazol-2-yl)imidazo[1,2-a]pyridin-2-yl)methyl)-N-phenyl-1-(pyridin-2-yl) azetidine-3-carboxamide]
> 50000 nM	464 fold	108 nM	Fc1ccc(NCc2cn3ccc(-c4nnc(C(F)F)o4)cc3n2)cc1Cl [Compound 3672, 3-chloro-N-((7-(5-(difluoromethyl)-1,3,4-oxadiazol-2-yl)imidazo[1,2-a]pyridin-2-yl)methyl)-4-fluoroaniline]
> 50000 nM	249 fold	201 nM	O=C(C1COC1)N1CCN(C(=O)N(Cc2cn3ccc(-c4nnc(C(F)F)o4)cc3n2)c2cccc(F)c2)CC1 [Compound 4103, N-((7-(5-(difluoromethyl)-1,3,4-oxadiazol-2-yl)imidazo[1,2-a]pyridin-2-yl)methyl)-N-(3-fluorophenyl)-4-(oxetan-3-carbonyl)piperazine-1-carboxamide]

Further lines, the molecule ahead of its results:

SMILES	IC50 [1]	HDAC6 Selectivity (fold) [2]	IC50 [2]
O=C(N1CCN(C2CCC(F)(F)CC2)CC1)N(Cc1cn2ccc(-c3nnc(C(F)F)o3)cc2n1)c1cccc(F)c1 [Compound 4091, 4-(4,4-difluorocyclohexyl)-N-((7-(5-(difluoromethyl)-1,3,4-oxadiazol-2-yl)imidazo[1,2-a]pyridin-2-yl)methyl)-N-(3-fluorophenyl)piperazine-1-carboxamide]	> 50000 nM	194 fold	257 nM
CS(=O)(=O)N1CCN(C(=O)N(Cc2cn3ccc(-c4nnc(C(F)F)o4)cc3n2)c2ccccc2)CC1 [Compound 4045, N-((7-(5-(difluoromethyl)-1,3,4-oxadiazol-2-yl)imidazo[1,2-a]pyridin-2-yl)methyl)-4-(methylsulfonyl)-N-phenylpiperazine-1-carboxamide]	> 50000 nM	392 fold	128 nM
O=C(C1COC1)N1CCC(C(=O)N(Cc2cn3ccc(-c4nnc(C(F)F)o4)cc3n2)c2cccc(F)c2)CC1 [Compound 4151, N-((7-(5-(difluoromethyl)-1,3,4-oxadiazol-2-yl)imidazo[1,2-a]pyridin-2-yl)methyl)-N-(3-fluorophenyl)-1-(oxetane-3-carbonyl)piperidine-4-carboxamide]	> 50000 nM	245 fold	204 nM
O=C(C1CN(C2CCC2)C1)N(Cc1cn2ccc(-c3nnc(C(F)F)o3)cc2n1)c1cccc(F)c1 [Compound 4192, 1-cyclobutyl-N-((7-(5-(difluoromethyl)-1,3,4-oxadiazol-2-yl)imidazo[1,2-a]pyridin-2-yl)methyl)-N-(3-fluorophenyl) azetidine-3-carboxamide]	> 50000 nM	452 fold	111 nM
O=C(N1CCN(C(=O)C(F)(F)F)CC1)N(Cc1cn2ccc(-c3nnc(C(F)F)o3)cc2n1)c1ccccc1 [Compound 4044, N-((7-(5-(difluoromethyl)-1,3,4-oxadiazol-2-yl)imidazo[1,2-a]pyridin-2-yl)methyl)-N-phenyl-4-(2,2,2-trifluoroacetyl)piperazine-1-carboxamide]	> 50000 nM	384 fold	130 nM
Fc1ccc(Cc2cn3ccc(-c4nnc(C(F)F)o4)cc3n2)c(F)c1 [Compound 3588, 2-(2-(2,4-difluorobenzyl)imidazo[1,2-a]pyridin-7-yl)-5-(difluoromethyl)-1,3,4-oxadiazole]	> 50000 nM	205 fold	244 nM
CN(C)C(=O)N1CCN(C(=O)N(Cc2cn3ccc(-c4nnc(C(F)F)o4)cc3n2)c2cccc(F)c2)CC1 [Compound 4099, N1-((7-(5-(difluoromethyl)-1,3,4-oxadiazol-2-yl)imidazo[1,2-a]pyridin-2-yl)methyl)-N1-(3-fluorophenyl)-N4,N4-dimethylpiperazine-1,4-dicarboxamide]	> 50000 nM	360 fold	139 nM
O=C(C1CCC1)N1CCN(C(=O)N(Cc2cn3ccc(-c4nnc(C(F)F)o4)cc3n2)c2ccccc2)CC1 [Compound 4043, 4-(cyclobutanecarbonyl)-N-((7-(5-(difluoromethyl)-1,3,4-oxadiazol-2-yl)imidazo[1,2-a]pyridine-2-yl)methyl)-N-phenylpiperazine-1-carboxamide]	> 50000 nM	302 fold	166 nM
